The values that follow come from PMC8727733, “Improvement of glycine biosynthesis from one‐carbon compounds and ammonia catalyzed by the glycine cleavage system in vitro” (Engineering in Life Sciences, 2021).

The test addresses T1, glycine cleavage system (GCS), L protein with P, T and H proteins (Escherichia coli, UniProt P0A9P0).
T1 construct: gene lpdA; printed WP records may differ from the MG1655 alleles; with Glycine dehydrogenase (decarboxylating); Aminomethyltransferase; Glycine cleavage system H protein
T1 sequence (P0A9P0 2-474): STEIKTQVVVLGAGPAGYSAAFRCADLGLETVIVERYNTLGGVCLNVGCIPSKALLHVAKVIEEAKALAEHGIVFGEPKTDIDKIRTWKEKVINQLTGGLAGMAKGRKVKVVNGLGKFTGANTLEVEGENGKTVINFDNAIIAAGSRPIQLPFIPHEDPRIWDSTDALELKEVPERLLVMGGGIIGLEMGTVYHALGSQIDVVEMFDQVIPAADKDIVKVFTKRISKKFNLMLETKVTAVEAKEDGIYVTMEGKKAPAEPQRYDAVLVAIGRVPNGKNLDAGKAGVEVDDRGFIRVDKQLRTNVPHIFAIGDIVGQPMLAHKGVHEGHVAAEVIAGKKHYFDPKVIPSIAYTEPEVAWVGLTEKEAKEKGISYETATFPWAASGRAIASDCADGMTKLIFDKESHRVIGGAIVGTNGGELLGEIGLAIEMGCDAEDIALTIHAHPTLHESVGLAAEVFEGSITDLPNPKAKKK
T1 sequence (P0A6T9 2-129 partner): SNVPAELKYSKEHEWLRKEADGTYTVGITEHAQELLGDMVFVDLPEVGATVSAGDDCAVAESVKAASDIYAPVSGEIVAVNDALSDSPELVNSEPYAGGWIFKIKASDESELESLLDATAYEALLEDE
Briefly: glycine-dependent NADH formation, spectrophotometric, reconstituted GCS. The conditions noted are these: 5 mM NAD+, 50 mM glycine, 0.5 mM THF, 20 mM DTT, 25 uM PLP, 50 mM Tris-HCl pH 7.5, 37 C; overall glycine cleavage. Type of test: biochemical.

For `NC(=O)c1ccc[n+]([C@@H]2O[C@H](COP(=O)(O)OP(=O)(O)OC[C@H]3O[C@@H](n4cnc5c(N)ncnc54)[C@H](O)[C@@H]3O)[C@@H](O)[C@H]2O)c1` [NAD+], the “glycine-dependent NADH formation, spectrophotometric, reconstituted GCS” value is on record as “measuring glycine‐dependent NADH formation”.
